{"source": "the kinase profiling compilation of Christmann-Franck et al. (2016)", "assay_in_all_cases": "KINOMEscan competition binding", "settings_in_all_cases": "compound 0.1 µM", "key": {"ALK (human)": {"molecular_target": "ALK (human) (UniProt Q9UM73)"}, "PKMYT1 (human)": {"molecular_target": "PKMYT1 (human) (UniProt Q99640)"}, "TAOK1 (human)": {"molecular_target": "TAOK1 (human) (UniProt Q7L7X3)"}, "TNK1 (human)": {"molecular_target": "TNK1 (human) (UniProt Q13470)"}, "ERBB2 (human)": {"molecular_target": "ERBB2 (human) (UniProt P04626)"}, "MINK1 (human)": {"molecular_target": "MINK1 (human) (UniProt Q8N4C8)"}, "MAP3K5 (human)": {"molecular_target": "MAP3K5 (human) (UniProt Q99683)"}, "MAPK9 (human)": {"molecular_target": "MAPK9 (human) (UniProt P45984)"}, "PIK3CB (human)": {"molecular_target": "PIK3CB (human) (UniProt P42338)"}, "STK32B (human)": {"molecular_target": "STK32B (human) (UniProt Q9NY57)"}, "ROCK1 (human)": {"molecular_target": "ROCK1 (human) (UniProt Q13464)"}, "TNNI3K (human)": {"molecular_target": "TNNI3K (human) (UniProt Q59H18)", "sequence (Q59H18 whole entry, looked up)": "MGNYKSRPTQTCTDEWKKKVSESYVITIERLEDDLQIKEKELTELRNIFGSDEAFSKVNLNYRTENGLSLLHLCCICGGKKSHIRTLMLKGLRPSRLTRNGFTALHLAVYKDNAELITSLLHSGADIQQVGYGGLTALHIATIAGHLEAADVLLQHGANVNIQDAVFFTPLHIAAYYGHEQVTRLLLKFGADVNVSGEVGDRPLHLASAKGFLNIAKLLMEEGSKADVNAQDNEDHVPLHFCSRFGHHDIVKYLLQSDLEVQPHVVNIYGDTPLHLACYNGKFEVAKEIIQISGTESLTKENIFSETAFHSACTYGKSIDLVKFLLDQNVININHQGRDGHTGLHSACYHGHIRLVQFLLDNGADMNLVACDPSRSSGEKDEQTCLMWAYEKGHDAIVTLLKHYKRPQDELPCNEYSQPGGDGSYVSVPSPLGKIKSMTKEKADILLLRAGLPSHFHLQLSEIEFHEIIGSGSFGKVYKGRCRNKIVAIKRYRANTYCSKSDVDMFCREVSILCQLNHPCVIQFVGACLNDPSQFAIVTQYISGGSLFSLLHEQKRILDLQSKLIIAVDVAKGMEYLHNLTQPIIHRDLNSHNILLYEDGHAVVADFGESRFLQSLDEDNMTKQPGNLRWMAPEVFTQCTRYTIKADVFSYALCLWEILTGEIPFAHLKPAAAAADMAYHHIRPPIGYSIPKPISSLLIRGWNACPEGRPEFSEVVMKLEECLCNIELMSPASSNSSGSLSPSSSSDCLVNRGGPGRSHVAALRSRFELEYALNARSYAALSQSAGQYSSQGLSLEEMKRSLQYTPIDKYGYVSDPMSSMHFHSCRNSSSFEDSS"}, "PRPF4B (human)": {"molecular_target": "PRPF4B (human) (UniProt Q13523)"}, "TXK (human)": {"molecular_target": "TXK (human) (UniProt P42681)"}, "CDK13 (human)": {"molecular_target": "CDK13 (human) (UniProt Q14004)"}, "MAP3K4 (human)": {"molecular_target": "MAP3K4 (human) (UniProt Q9Y6R4)"}, "ROCK2 (human)": {"molecular_target": "ROCK2 (human) (UniProt O75116)"}, "CHUK (human)": {"molecular_target": "CHUK (human) (UniProt O15111)"}, "MAP2K2 (human)": {"molecular_target": "MAP2K2 (human) (UniProt P36507)"}, "TAOK2 (human)": {"molecular_target": "TAOK2 (human) (UniProt Q9UL54)"}, "FGR (human)": {"molecular_target": "FGR (human) (UniProt P09769)", "sequence (P09769 whole entry, looked up)": "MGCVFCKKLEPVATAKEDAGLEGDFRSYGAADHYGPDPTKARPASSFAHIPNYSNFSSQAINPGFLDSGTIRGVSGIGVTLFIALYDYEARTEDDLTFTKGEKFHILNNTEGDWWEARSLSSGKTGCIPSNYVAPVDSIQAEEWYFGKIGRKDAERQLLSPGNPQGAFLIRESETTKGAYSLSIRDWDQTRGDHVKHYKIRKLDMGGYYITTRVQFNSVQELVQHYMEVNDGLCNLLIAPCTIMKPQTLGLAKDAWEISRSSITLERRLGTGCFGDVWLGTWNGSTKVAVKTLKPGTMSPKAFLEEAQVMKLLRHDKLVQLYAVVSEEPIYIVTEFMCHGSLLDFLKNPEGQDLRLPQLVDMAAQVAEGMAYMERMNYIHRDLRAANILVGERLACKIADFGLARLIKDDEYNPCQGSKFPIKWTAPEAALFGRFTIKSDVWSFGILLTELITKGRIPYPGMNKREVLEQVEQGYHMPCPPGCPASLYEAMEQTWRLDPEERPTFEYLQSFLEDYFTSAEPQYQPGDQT"}, "PRKG1 (human)": {"molecular_target": "PRKG1 (human) (UniProt Q13976)"}, "ULK2 (human)": {"molecular_target": "ULK2 (human) (UniProt Q8IYT8)"}, "[1]": {"test_system": "EGFR (human), P00533 [L861Q]"}, "RIPK4 (human)": {"molecular_target": "RIPK4 (human) (UniProt P57078)", "sequence (P57078 whole entry, looked up)": "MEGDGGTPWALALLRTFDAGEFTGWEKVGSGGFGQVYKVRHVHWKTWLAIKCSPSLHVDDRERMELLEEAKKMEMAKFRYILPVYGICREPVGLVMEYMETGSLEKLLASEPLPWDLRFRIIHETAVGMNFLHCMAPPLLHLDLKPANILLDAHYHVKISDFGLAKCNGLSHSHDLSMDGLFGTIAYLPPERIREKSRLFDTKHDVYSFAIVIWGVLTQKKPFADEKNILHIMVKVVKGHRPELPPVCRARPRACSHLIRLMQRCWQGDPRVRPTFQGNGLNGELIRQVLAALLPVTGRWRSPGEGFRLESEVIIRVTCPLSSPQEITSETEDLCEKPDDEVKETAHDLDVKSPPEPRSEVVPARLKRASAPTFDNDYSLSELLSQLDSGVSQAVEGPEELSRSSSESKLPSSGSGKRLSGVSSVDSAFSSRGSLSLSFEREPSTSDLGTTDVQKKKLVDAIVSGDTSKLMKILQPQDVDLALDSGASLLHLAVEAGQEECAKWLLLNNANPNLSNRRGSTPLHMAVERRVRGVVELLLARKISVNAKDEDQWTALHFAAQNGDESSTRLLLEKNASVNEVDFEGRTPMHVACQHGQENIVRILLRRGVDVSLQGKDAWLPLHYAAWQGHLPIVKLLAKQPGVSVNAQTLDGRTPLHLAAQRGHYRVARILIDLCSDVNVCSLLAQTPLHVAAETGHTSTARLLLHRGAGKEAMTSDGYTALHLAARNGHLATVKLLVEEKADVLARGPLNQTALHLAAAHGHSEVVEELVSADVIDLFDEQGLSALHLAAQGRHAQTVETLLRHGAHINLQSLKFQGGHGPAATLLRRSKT"}, "YES1 (human)": {"molecular_target": "YES1 (human) (UniProt P07947)"}, "MTOR (human)": {"molecular_target": "MTOR (human) (UniProt P42345)"}, "CDK9 (human)": {"molecular_target": "CDK9 (human) (UniProt P50750)", "sequence (P50750 whole entry, looked up)": "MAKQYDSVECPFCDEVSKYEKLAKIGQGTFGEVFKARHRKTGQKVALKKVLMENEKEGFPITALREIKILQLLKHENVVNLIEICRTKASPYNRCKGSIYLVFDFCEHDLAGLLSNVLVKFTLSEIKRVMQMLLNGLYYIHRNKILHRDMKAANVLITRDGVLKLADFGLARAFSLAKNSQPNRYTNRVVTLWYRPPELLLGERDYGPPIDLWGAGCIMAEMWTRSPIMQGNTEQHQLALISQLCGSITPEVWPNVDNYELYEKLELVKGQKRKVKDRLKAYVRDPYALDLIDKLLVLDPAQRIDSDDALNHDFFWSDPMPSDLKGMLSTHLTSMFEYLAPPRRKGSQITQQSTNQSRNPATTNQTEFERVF"}, "MAP4K3 (human)": {"molecular_target": "MAP4K3 (human) (UniProt Q8IVH8)", "sequence (Q8IVH8 whole entry, looked up)": "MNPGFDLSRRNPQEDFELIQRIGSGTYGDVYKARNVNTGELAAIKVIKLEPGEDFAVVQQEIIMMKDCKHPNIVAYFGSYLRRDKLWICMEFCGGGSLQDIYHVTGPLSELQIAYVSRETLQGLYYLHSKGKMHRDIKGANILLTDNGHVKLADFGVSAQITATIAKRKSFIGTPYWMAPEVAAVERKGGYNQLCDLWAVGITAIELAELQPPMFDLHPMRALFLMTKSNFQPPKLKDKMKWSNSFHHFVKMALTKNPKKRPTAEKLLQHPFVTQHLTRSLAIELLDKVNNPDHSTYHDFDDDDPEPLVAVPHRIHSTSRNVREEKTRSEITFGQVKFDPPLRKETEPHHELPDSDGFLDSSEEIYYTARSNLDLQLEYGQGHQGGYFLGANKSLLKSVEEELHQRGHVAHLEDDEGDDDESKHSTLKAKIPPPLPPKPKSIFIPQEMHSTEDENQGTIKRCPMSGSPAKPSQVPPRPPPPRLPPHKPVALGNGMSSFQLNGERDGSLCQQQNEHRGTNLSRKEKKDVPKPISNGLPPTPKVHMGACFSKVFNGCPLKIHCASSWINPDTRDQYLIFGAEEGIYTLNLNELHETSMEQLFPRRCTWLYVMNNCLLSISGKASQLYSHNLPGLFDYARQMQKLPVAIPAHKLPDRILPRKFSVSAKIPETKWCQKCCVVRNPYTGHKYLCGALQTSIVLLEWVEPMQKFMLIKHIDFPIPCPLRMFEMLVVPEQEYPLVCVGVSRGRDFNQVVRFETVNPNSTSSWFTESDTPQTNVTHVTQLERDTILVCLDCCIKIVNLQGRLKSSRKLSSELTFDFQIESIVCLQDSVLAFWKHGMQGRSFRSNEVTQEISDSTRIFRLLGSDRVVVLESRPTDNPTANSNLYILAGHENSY"}, "PDPK1 (human)": {"molecular_target": "PDPK1 (human) (UniProt O15530)"}, "NEK10 (human)": {"molecular_target": "NEK10 (human) (UniProt Q6ZWH5)"}, "RIOK3 (human)": {"molecular_target": "RIOK3 (human) (UniProt O14730)", "sequence (O14730 whole entry, looked up)": "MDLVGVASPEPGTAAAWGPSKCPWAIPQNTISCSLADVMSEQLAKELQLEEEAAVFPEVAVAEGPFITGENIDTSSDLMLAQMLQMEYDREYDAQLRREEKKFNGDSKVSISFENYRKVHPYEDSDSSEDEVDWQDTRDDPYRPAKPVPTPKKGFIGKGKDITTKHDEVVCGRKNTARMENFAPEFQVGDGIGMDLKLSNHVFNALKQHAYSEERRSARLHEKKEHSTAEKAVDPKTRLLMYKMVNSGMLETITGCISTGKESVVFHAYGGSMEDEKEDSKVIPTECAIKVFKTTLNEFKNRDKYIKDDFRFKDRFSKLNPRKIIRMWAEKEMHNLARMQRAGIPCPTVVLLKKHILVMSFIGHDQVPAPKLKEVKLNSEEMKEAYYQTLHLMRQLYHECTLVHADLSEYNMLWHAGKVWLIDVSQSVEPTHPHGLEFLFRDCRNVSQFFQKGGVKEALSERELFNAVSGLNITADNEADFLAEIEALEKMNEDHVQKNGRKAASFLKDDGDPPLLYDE"}, "ZAP70 (human)": {"molecular_target": "ZAP70 (human) (UniProt P43403)"}, "PIM2 (human)": {"molecular_target": "PIM2 (human) (UniProt Q9P1W9)", "sequence (Q9P1W9 whole entry, looked up)": "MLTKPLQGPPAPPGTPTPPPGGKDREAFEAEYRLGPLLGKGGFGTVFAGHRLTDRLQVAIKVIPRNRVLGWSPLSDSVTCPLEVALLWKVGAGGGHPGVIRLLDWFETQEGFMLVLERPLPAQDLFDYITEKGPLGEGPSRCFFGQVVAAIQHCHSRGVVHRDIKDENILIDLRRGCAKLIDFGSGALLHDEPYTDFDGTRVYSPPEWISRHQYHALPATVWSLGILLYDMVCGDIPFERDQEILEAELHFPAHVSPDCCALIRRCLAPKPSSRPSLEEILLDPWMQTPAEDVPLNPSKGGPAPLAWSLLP"}, "TBK1 (human)": {"molecular_target": "TBK1 (human) (UniProt Q9UHD2)", "sequence (Q9UHD2 whole entry, looked up)": "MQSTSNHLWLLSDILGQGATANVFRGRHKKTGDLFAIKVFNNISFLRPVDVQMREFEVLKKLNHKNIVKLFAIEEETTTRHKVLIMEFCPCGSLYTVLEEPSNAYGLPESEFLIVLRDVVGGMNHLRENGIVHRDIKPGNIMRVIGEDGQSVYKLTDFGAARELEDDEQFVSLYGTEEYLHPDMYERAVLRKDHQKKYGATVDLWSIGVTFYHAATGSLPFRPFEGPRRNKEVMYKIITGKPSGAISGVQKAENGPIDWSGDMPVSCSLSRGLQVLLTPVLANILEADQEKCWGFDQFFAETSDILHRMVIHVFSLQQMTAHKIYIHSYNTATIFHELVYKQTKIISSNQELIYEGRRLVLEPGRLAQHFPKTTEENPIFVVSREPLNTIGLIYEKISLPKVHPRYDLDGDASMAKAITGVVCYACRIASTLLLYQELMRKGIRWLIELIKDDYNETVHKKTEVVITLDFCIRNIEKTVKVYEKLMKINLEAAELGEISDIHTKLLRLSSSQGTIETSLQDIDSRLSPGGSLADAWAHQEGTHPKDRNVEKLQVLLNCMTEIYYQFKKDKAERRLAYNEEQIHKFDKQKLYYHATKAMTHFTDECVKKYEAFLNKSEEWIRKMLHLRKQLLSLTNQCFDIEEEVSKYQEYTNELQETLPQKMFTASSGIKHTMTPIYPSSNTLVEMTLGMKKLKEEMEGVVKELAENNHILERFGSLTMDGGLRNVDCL"}}}
{"smiles": "CCc1ccc(C(=O)Nc2cc(CN3CCN(C)CC3)cc(C(F)(F)F)c2)cc1C#Cc1cnc2ccnn2c1", "values": [{"measurement": "kinase still bound, per cent of control", "setting": "ALK (human)", "value": 100, "unit": "%"}, {"measurement": "kinase still bound, per cent of control", "setting": "PKMYT1 (human)", "value": 100, "unit": "%"}, {"measurement": "kinase still bound, per cent of control", "setting": "TAOK1 (human)", "value": 100, "unit": "%"}, {"measurement": "kinase still bound, per cent of control", "setting": "TNK1 (human)", "value": 52, "unit": "%"}, {"measurement": "kinase still bound, per cent of control", "setting": "ERBB2 (human)", "value": 61, "unit": "%"}, {"measurement": "kinase still bound, per cent of control", "setting": "MINK1 (human)", "value": 100, "unit": "%"}, {"measurement": "kinase still bound, per cent of control", "setting": "MAP3K5 (human)", "value": 100, "unit": "%"}, {"measurement": "kinase still bound, per cent of control", "setting": "MAPK9 (human)", "value": 100, "unit": "%"}, {"measurement": "kinase still bound, per cent of control", "setting": "PIK3CB (human)", "value": 100, "unit": "%"}, {"measurement": "kinase still bound, per cent of control", "setting": "STK32B (human)", "value": 100, "unit": "%"}, {"measurement": "kinase still bound, per cent of control", "setting": "ROCK1 (human)", "value": 83, "unit": "%"}, {"measurement": "kinase still bound, per cent of control", "setting": "TNNI3K (human)", "value": 56, "unit": "%"}, {"measurement": "kinase still bound, per cent of control", "setting": "PRPF4B (human)", "value": 75, "unit": "%"}, {"measurement": "kinase still bound, per cent of control", "setting": "TXK (human)", "value": 79, "unit": "%"}, {"measurement": "kinase still bound, per cent of control", "setting": "CDK13 (human)", "value": 71, "unit": "%"}, {"measurement": "kinase still bound, per cent of control", "setting": "MAP3K4 (human)", "value": 100, "unit": "%"}, {"measurement": "kinase still bound, per cent of control", "setting": "ROCK2 (human)", "value": 100, "unit": "%"}, {"measurement": "kinase still bound, per cent of control", "setting": "CHUK (human)", "value": 100, "unit": "%"}, {"measurement": "kinase still bound, per cent of control", "setting": "MAP2K2 (human)", "value": 100, "unit": "%"}, {"measurement": "kinase still bound, per cent of control", "setting": "TAOK2 (human)", "value": 100, "unit": "%"}, {"measurement": "kinase still bound, per cent of control", "setting": "FGR (human)", "value": 59, "unit": "%"}, {"measurement": "kinase still bound, per cent of control", "setting": "PRKG1 (human)", "value": 99, "unit": "%"}, {"measurement": "kinase still bound, per cent of control", "setting": "ULK2 (human)", "value": 86, "unit": "%"}, {"measurement": "kinase still bound, per cent of control", "setting": "[1]", "value": 100, "unit": "%"}, {"measurement": "kinase still bound, per cent of control", "setting": "RIPK4 (human)", "value": 100, "unit": "%"}, {"measurement": "kinase still bound, per cent of control", "setting": "YES1 (human)", "value": 70, "unit": "%"}, {"measurement": "kinase still bound, per cent of control", "setting": "MTOR (human)", "value": 100, "unit": "%"}, {"measurement": "kinase still bound, per cent of control", "setting": "CDK9 (human)", "value": 98, "unit": "%"}, {"measurement": "kinase still bound, per cent of control", "setting": "MAP4K3 (human)", "value": 100, "unit": "%"}, {"measurement": "kinase still bound, per cent of control", "setting": "PDPK1 (human)", "value": 100, "unit": "%"}, {"measurement": "kinase still bound, per cent of control", "setting": "NEK10 (human)", "value": 100, "unit": "%"}, {"measurement": "kinase still bound, per cent of control", "setting": "RIOK3 (human)", "value": 64, "unit": "%"}, {"measurement": "kinase still bound, per cent of control", "setting": "ZAP70 (human)", "value": 100, "unit": "%"}, {"measurement": "kinase still bound, per cent of control", "setting": "PIM2 (human)", "value": 96, "unit": "%"}, {"measurement": "kinase still bound, per cent of control", "setting": "TBK1 (human)", "value": 100, "unit": "%"}]}
